Data: ChEMBL document CHEMBL1201862, “PubChem BioAssay data set” (2004)
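Assay format: 96-well plates, 48-hour exposure. GI50 = concentration required for 50% inhibition of growth.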 Activity calls are given as the source filed them. Rule as the data show it: active = GI50 up to about 1.1 µM and inactive = higher.

Tests used:
Assay in all cases: growth of human tumour cells (NCI), 48 h
HCT-116 = test system: HCT-116
HCT-15 = test system: HCT-15
HT-29 = test system: HT-29
IGROV-1 = test system: IGROV-1
MDA-MB-231 = test system: MDA-MB-231
MDA-MB-435 = test system: MDA-MB-435
MOLT-4 = test system: MOLT-4
Malme-3M = test system: Malme-3M
NCI-H23 = test system: NCI-H23
OVCAR-8 = test system: OVCAR-8
PC-3 = test system: PC-3
RPMI-8226 = test system: RPMI-8226
SF-295 = test system: SF-295
SK-MEL-28 = test system: SK-MEL-28
SK-MEL-2 = test system: SK-MEL-2
SK-MEL-5 = test system: SK-MEL-5
SNB-19 = test system: SNB-19
U-251 = test system: U-251
K562 = test system: K562
NCI-H522 = test system: NCI-H522

| SMILES | GI50 (HCT-116) | GI50 (HCT-15) [µM] | GI50 (HT-29) | GI50 (IGROV-1) | GI50 (MDA-MB-231) | GI50 (MDA-MB-435) | GI50 (MOLT-4) | GI50 (Malme-3M) | GI50 (NCI-H23) | GI50 (OVCAR-8) | GI50 (PC-3) | GI50 (RPMI-8226) | GI50 (SF-295) | GI50 (SK-MEL-28) | GI50 (SK-MEL-2) | GI50 (SK-MEL-5) | GI50 (SNB-19) | GI50 (U-251) | GI50 (K562) | GI50 (NCI-H522) |
| --- | --- | --- | --- | --- | --- | --- | --- | --- | --- | --- | --- | --- | --- | --- | --- | --- | --- | --- | --- | --- |
| NC(=O)c1ncn(C2CCC(CP(=O)(O)O)C2)c1N (stereo not drawn) | > 100 µM (inactive) | > 100 | > 100 µM (inactive) | > 100 µM (inactive) | > 100 µM (inactive) | > 100 µM (inactive) | > 100 µM (inactive) | > 100 µM (inactive) | > 100 µM (inactive) | > 100 µM (inactive) | > 100 µM (inactive) | > 100 µM (inactive) | > 100 µM (inactive) | > 100 µM (inactive) | > 100 µM (inactive) | > 100 µM (inactive) | > 100 µM (inactive) | > 100 µM (inactive) |  |  |
| COC(=O)c1cc(O)ccc1O [METHYL 2,5-DIHYDROXYBENZOATE] |  | > 100 | > 100 µM (inactive) | > 100 µM (inactive) |  |  | > 100 µM (inactive) | > 100 µM (inactive) |  | > 100 µM (inactive) |  | > 100 µM (inactive) | > 100 µM (inactive) | > 100 µM (inactive) | > 100 µM (inactive) | > 100 µM (inactive) | > 100 µM (inactive) | > 100 µM (inactive) | > 100 µM (inactive) | 93.1 µM (inactive) |
| C/N=C(\NC(=S)N(C)C)N(C)C | > 100 µM (inactive) | > 100 | > 100 µM (inactive) | > 100 µM (inactive) |  |  | > 100 µM (inactive) | > 100 µM (inactive) | > 100 µM (inactive) | > 100 µM (inactive) |  | > 100 µM (inactive) | > 100 µM (inactive) | > 100 µM (inactive) | > 100 µM (inactive) | > 100 µM (inactive) | > 100 µM (inactive) | > 100 µM (inactive) | > 100 µM (inactive) | > 100 µM (inactive) |
| COC1=CC(=O)C2C(C1=O)C(c1ccc(OC)c(OC)c1)[C@H]2C (stereo partly drawn) | 18 µM (inactive) | 18.2 | 31.8 µM (inactive) | > 100 µM (inactive) |  |  | 7.71 µM (inactive) | 19.6 µM (inactive) | 19.9 µM (inactive) | 20.6 µM (inactive) |  | 14.6 µM (inactive) | > 100 µM (inactive) | 20.3 µM (inactive) | > 100 µM (inactive) | 22.4 µM (inactive) | > 100 µM (inactive) | > 100 µM (inactive) | 23.4 µM (inactive) | 12.8 µM (inactive) |
| COCc1c(CO)cnc(C)c1OC1OC(CO)C(O)C(O)C1O (stereo not drawn) | > 100 µM (inactive) | > 100 | > 100 µM (inactive) | > 100 µM (inactive) |  |  | > 100 µM (inactive) | > 100 µM (inactive) |  | > 100 µM (inactive) |  | > 100 µM (inactive) | > 100 µM (inactive) | > 100 µM (inactive) | > 100 µM (inactive) | > 100 µM (inactive) | > 100 µM (inactive) | > 100 µM (inactive) | > 100 µM (inactive) | > 100 µM (inactive) |
